Reference: US9745299B2, “Substituted tricyclic benzimidazoles as kinase inhibitors” (SELVITA SA, priority 2012, dated 2017)
Counter-ions that a name gives are not always drawn.

Experiments:
[1] = biological target: T1, CDK8/CyclinC (Homo sapiens, UniProt P49336); test: ADP-Glo Kinase Assay, CDK8/CyclinC; format: biochemical; conditions: read-out: % inhibition at 1 μM CDK8/CyclinC; further: ATP at apparent Km (53 µM)
T1 construct: purchased ProQinase, Freiburg, Germany
Summary of the method: (§1)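 ADP-Glo luminescent ADP detection measured kinase activity: remaining ATP depleted, ADP converted to ATP for luciferase read-out.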

[2] = system: A549 lung carcinoma; test: Cytotoxic effects, A549; format: cell-based, human
[3] = system: Rec-1 B-cell lymphoma; test: Cytotoxic effects, Rec-1; format: cell-based, human
[4] = system: SW480 cells; test: MTS viability assay, SW480; format: cell-based; conditions: Homo sapiens, SW480, 72 hour incubation, read-out: IC50 [μM] SW-480 ED50
Text: (§2) The viability of CDK8 expressing cells can be evaluated using a tetrazolium salt reduction cell-based assay. In viable cells this colorimetric assay can measure mitochondrial reduction of a tetrazolium component (MTS) into an […] formazan product. For MTS viability assay, human colon cancer cell lines were used (SW480 and HCT116 cell lines), containing elevated levels of CDK8 protein and highly dependent on its expression for proliferation [see, Firenstein et al. Nature 455 (25):547-551, (2008)]. These cell lines were used to determine the activity of the compounds provided herein to inhibit CDK8 in intact cells. Human tumor cell lines were obtained from ATCC (Rockville Md. USA). In each case, and by methods known to those practiced in the art of cell culture, vaiability was measured after 72 hour incubation with the compounds provided herein using a standard MTS protocol (CellTiter 96® AQueous Non-Radioactive Cell Proliferation Assay).
(§3) Briefly, cells were plated at 10,000-20,000 cells per well in DMEM medium supplemented with 10% fetal bovine serum. The compound plate was set up by aliquoting into column 1 of a 96-well plate, the negative control (DMSO), aliquoting into column 12 the positive control, and titrating the test compound in serial dilutions into columns 2-11. An aliquot from each well of the compound plate was transferred to the plated cells and then incubated at 37° C. in 5% CO2. 20 μL of MTS tetrazolium was added to each well of optical plate and the cells were incubated at 37° C. in 5% CO2 for 2 hours. The absorbance was measured at 490 nm using a microplate reader.

[5] = system: MV4-11 acute myelocytic leukemia (AML); test: Cytotoxic effects, MV4-11; format: cell-based, human
[6] = biological target: T2, CDK7/CyclinH/MAT1 (Homo sapiens, UniProt P50613); test: ADP-Glo Kinase Assay, CDK7/CyclinH/MAT1; format: biochemical; conditions: read-out: % inhibition at 1 μM CDK7/CyclinH/MAT1
T2 construct: purchased Millipore, Billerica, Mass., USA
Description: (§4) Testing of the compounds described in this invention was carried out using the ADP-Glo™ Kinase Assay from Promega Corporation (Madison, Wis., USA).
(§5) The ADP-Glo™ Kinase Assay is a luminescent ADP detection assay to measure kinase activity by quantifying the amount of ADP produced during a kinase reaction. The kinase assay is performed in kinase assay buffer (5 mM MOPS, pH 7.5, 5 mM MgCl2, 0.4 mM EDTA, 1.5 mM DTT). Test samples initially dissolved in DMSO at 10 mM were diluted with the assay buffer to 1000 nM. A 30 μL volume/well of a mixture of substrates containing ATP (final ATP concentration in each kinase assay was equal to its apparent ATP Km).
(§6) The assay was performed in two steps: first, after the kinase reaction, an equal volume of ADP-Glo™ Reagent was added to terminate the kinase reaction and deplete the remaining ATP. Second, the Kinase Detection Reagent was added to simultaneously convert ADP to ATP and allowed the newly synthesized ATP to be measured using a luciferase/luciferin reaction. The luminescent signal generated was proportional to the ADP concentration produced and was correlated with kinase activity.

[7] = system: SK-MEL5 melanoma; test: Cytotoxic effects, SK-MEL5; format: cell-based, human
[8] = system: MCF7 breast adenocarcinoma; test: Cytotoxic effects, MCF7; format: cell-based, human
[9] = system: HCT116 cells; test: MTS viability assay, HCT116; format: cell-based; conditions: Homo sapiens, HCT-116, HCT116, 72 hour incubation, read-out: IC50 [μM] HCT116 ED50
Text: as §2, §3

[10] = biological target: T3, CDK1/CyclinB (Homo sapiens, UniProt P06493); test: ADP-Glo Kinase Assay, CDK1/CyclinB; format: biochemical; conditions: read-out: % inhibition at 1 μM CDK1/CyclinB; further: ATP at apparent Km (20 µM)
T3 construct: purchased Millipore, Billerica, Mass., USA
Description: Testing of the compounds described in this invention was carried out using the ADP-Glo™ Kinase Assay from Promega Corporation (Madison, Wis., USA). […] The ADP-Glo™ Kinase Assay is a luminescent ADP detection assay to measure kinase activity by quantifying the amount of ADP produced during a kinase reaction. The kinase assay is performed in kinase assay buffer (5 mM MOPS, pH 7.5, 5 mM MgCl2, 0.4 mM EDTA, 1.5 mM DTT). Test samples initially dissolved in DMSO at 10 mM were diluted with the assay buffer to 1000 nM. A 30 μL volume/well of a mixture of substrates containing ATP (final ATP concentration in each kinase assay was equal to its apparent ATP Km). […] The assay was performed in two steps: first, after the kinase reaction, an equal volume of ADP-Glo™ Reagent was added to terminate the kinase reaction and deplete the remaining ATP. Second, the Kinase Detection Reagent was added to simultaneously convert ADP to ATP and allowed the newly synthesized ATP to be measured using a luciferase/luciferin reaction. The luminescent signal generated was proportional to the ADP concentration produced and was correlated with kinase activity.

[11] = biological target: T4, CDK5/p25 (Homo sapiens, UniProt Q00535); test: ADP-Glo Kinase Assay, CDK5/p25; format: biochemical; conditions: read-out: % inhibition at 1 μM CDK5/p25; further: ATP at apparent Km (12 µM)
T4 construct: purchased Millipore, Billerica, Mass., USA
Description: as §4, §5, §6

[12] = biological target: T5, CDK2/CyclinE (Homo sapiens, UniProt P24941); test: ADP-Glo Kinase Assay, CDK2/CyclinE; format: biochemical; conditions: read-out: % inhibition at 1 μM CDK2/CyclinE
T5 construct: purchased Millipore, Billerica, Mass., USA
Summary of the method: as §1

[13] = biological target: T6, CDK9/CyclinT (Homo sapiens, UniProt P50750); test: ADP-Glo Kinase Assay, CDK9/CyclinT; format: biochemical; conditions: read-out: % inhibition at 1 μM CDK9/CyclinT; further: ATP at apparent Km (26 µM)
T6 construct: purchased Proqinase, Freiburg, Germany
Summary of the method: as §1

[14] = system: PC-3 adenocarcinoma prostate; test: Cytotoxic effects, PC-3; format: cell-based, human

T3 sequence (P06493 whole entry): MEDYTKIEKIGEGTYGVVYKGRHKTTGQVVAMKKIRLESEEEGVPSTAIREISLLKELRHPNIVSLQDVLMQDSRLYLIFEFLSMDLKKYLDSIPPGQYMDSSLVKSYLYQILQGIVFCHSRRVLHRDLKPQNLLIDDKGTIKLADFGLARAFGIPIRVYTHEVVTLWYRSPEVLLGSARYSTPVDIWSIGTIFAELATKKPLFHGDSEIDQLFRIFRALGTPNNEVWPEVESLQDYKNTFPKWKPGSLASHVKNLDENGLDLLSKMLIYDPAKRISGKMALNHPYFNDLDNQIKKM
T3 sequence (P14635 whole entry partner): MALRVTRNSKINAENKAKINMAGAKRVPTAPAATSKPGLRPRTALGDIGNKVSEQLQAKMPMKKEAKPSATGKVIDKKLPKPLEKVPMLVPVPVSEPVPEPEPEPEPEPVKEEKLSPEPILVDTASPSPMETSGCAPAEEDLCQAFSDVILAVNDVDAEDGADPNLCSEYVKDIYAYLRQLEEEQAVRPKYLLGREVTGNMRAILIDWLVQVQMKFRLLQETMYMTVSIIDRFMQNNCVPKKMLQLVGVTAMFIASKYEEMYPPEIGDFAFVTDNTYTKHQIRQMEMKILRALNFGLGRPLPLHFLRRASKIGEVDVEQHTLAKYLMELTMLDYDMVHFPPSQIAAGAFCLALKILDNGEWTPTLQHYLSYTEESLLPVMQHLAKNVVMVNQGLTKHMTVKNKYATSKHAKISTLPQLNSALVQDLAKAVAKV
T1 sequence (P49336 whole entry): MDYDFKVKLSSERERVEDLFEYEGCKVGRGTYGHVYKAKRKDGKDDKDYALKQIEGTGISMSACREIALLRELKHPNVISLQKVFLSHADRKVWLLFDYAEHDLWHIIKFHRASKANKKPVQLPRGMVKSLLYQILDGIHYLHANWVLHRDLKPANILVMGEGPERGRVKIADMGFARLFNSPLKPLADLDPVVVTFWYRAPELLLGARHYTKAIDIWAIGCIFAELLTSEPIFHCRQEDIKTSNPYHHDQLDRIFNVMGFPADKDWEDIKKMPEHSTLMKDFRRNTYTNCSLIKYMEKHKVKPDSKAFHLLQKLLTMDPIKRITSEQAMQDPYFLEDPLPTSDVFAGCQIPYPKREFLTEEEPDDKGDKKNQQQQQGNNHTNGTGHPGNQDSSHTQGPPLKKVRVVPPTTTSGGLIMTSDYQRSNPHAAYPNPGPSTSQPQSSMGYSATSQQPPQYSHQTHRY
T1 sequence (P24863 whole entry partner): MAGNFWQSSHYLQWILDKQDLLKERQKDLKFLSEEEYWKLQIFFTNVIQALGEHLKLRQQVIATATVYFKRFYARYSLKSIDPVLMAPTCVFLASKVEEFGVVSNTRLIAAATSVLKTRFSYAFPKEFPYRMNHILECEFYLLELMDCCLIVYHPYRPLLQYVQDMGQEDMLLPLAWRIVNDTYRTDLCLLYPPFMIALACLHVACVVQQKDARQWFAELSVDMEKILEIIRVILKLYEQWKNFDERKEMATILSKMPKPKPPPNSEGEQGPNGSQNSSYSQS
T4 sequence (Q00535 whole entry): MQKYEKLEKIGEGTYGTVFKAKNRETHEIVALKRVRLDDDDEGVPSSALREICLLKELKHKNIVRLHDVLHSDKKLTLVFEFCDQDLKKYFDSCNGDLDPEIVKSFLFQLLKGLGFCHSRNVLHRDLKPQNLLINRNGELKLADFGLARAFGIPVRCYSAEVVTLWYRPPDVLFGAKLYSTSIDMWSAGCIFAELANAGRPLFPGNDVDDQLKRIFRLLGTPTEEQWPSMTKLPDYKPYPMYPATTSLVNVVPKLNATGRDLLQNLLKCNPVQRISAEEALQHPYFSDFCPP
T4 sequence (Q15078 99-307 partner limits assumed): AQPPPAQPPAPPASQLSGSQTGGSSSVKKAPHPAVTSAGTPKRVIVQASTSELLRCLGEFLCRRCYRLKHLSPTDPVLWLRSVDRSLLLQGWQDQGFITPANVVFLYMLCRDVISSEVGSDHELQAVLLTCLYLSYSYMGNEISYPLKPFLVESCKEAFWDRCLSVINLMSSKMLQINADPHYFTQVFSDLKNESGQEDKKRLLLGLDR
T2 sequence (P50613 whole entry): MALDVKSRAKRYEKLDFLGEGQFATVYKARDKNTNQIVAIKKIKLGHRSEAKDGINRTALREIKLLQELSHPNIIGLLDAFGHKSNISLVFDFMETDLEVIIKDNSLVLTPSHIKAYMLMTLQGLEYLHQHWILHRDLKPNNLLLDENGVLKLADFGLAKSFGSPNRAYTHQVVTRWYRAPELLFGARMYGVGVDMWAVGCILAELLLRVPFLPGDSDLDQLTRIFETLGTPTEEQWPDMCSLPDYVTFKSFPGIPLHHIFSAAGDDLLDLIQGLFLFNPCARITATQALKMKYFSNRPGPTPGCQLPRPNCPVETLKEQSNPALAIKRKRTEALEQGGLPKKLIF
T2 sequence (P51946 whole entry partner): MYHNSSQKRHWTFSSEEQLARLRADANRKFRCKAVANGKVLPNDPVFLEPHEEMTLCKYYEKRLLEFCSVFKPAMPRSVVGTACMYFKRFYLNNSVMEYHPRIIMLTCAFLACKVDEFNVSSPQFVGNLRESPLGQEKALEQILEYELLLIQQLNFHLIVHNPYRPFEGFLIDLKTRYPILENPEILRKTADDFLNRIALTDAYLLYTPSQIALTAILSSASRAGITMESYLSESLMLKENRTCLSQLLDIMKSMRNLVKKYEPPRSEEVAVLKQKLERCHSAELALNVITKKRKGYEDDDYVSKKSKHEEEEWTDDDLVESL
T2 sequence (P51948 whole entry partner): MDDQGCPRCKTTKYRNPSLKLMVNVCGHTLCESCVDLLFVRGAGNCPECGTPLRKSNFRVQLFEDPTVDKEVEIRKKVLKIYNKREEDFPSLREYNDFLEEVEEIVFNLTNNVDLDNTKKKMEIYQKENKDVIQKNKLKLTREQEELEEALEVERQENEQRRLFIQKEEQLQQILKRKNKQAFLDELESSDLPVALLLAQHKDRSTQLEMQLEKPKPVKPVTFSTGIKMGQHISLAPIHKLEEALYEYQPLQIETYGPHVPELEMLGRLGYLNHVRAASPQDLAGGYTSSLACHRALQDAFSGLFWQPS
T6 sequence (P50750 whole entry): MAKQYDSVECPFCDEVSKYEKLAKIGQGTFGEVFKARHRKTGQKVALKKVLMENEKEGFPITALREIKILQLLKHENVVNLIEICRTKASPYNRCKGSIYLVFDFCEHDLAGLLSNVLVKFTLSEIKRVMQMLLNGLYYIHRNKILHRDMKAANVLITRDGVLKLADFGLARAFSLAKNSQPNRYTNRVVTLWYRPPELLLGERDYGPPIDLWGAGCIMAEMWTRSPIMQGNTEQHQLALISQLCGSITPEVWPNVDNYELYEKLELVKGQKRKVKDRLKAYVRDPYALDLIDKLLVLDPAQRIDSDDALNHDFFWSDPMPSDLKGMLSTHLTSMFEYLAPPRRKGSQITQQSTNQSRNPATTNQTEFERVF
T6 sequence (O60563 whole entry partner): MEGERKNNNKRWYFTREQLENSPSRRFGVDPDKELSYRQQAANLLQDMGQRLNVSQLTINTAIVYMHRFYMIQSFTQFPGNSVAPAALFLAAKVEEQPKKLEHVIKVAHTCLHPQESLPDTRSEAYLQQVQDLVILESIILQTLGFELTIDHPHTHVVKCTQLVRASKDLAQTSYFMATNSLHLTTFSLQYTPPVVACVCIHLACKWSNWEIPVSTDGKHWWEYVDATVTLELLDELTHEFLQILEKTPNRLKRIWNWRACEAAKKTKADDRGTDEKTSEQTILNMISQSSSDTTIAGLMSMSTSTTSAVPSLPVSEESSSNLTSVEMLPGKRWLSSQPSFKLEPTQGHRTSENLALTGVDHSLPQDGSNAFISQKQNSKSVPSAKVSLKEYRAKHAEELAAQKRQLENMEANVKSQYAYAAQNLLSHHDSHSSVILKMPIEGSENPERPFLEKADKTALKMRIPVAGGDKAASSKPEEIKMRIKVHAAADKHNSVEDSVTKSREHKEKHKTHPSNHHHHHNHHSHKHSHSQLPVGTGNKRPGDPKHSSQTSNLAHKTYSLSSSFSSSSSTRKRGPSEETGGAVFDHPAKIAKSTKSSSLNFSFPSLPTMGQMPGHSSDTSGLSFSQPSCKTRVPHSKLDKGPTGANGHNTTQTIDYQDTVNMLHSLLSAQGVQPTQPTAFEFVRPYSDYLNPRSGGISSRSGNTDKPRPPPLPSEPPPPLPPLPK

Compound	inhibition at 1 µM [1] [%]	cytotoxic effects [2]	cytotoxic effects [3]	IC50 [4] [µM]	cytotoxic effects [5]	inhibition at 1 µM [6] [%]	cytotoxic effects [7]	cytotoxic effects [8]	IC50 [9] [µM]	inhibition at 1 µM [10] [%]	inhibition at 1 µM [11] [%]	inhibition at 1 µM [12] [%]	inhibition at 1 µM [13] [%]	cytotoxic effects [14]
Cc1c(Br)c(Br)c2c3c1nc(N1CCNCC1)n3CCC2 [Example 1K]	76	showed cytotoxic effects	showed cytotoxic effects	1.1	showed cytotoxic effects	0	showed cytotoxic effects	showed cytotoxic effects	0.7	0	13	0	3	showed cytotoxic effects
Brc1c(Br)c2c3c(nc(N4CCNCC4)n3CCC2)c1Br [Example 6, 7,8,9-tribromo-2-(piperazin-1-yl)-5,6-dihydro-4H-imidazo[4,5,1-ij]quinoline maleate]	96	showed cytotoxic effects	showed cytotoxic effects	1	showed cytotoxic effects	21	showed cytotoxic effects	showed cytotoxic effects	0.4	38	39	0	55	showed cytotoxic effects
